Laboratory results from article PMC5762859, “Distribution analysis of epertinib in brain metastasis of HER2-positive breast cancer by imaging mass spectrometry and prospect for antitumor activity” (Scientific Reports, 2018).

Tests used:
[1] = test system: MDA-MB-361; assay: Mammary fat pad implantation model, antitumor activity; type: in vivo, mice; conditions: Mus musculus, 672 h; MDA-MB-361 in mammary fat pad, oral daily for 28 days
Excerpt: (§1) We evaluated the inhibitory activity of epertinib on the in vitro growth of the parental cell line, MDA-MB-361. […] To compare the growth inhibitory activity of epertinib on the parental and metastatic (BR2) cell lines, we evaluated the antitumor activity of epertinib in both cell lines. […] To confirm the antitumor activity of epertinib in the IVM, we examined the effect of epertinib on the IVM transplanted BR2.
(§2) Figure 6 In vivo antitumor activity of epertinib in the breast cancer IVM. Epertinib inhibits the growth of breast cancer in animal models. In each animal model, vehicle or indicated doses of epertinib were orally administered daily. Tumor volume was measured twice or thrice weekly and the mean tumor volume with SD is represented by each data point. Human breast cancer cells, MDA-MB-361 (A) or MDA-MB-361-luc-BR2 (B) was implanted orthotopically into the mammary fat pad of mice. Tumor-bearing mice were treated for 28 days (A and B). Tumor growth in the breast cancer IVM ([…]) was monitored by the photons emitted from the tumor as an indicator, which was measured with an IVIS Imaging System 200 (Caliper Life Sciences). […] The photons were measured once or twice weekly and the mean photons/sec with SD are presented at each data point (n = 3 for vehicle, n = 4 for 50 mg/kg of epertinib) (C). […]

[2] = test system: MDA-MB-361-luc-BR2; assay: as above; type: in vivo, mice; conditions: Mus musculus, 672 h; BR2 in mammary fat pad, oral daily for 28 days
Excerpt: as §1, §2

[3] = target: T1, breast cancer resistance protein (BCRP) (Homo sapiens, UniProt Q9UNQ0); conditions: cited from earlier work
T1 construct: permeability and efflux ratio of epertinib across Caco-2 cell monolayers; endogenous in cells; host or cells: Caco-2
T1 sequence (Q9UNQ0 1-655): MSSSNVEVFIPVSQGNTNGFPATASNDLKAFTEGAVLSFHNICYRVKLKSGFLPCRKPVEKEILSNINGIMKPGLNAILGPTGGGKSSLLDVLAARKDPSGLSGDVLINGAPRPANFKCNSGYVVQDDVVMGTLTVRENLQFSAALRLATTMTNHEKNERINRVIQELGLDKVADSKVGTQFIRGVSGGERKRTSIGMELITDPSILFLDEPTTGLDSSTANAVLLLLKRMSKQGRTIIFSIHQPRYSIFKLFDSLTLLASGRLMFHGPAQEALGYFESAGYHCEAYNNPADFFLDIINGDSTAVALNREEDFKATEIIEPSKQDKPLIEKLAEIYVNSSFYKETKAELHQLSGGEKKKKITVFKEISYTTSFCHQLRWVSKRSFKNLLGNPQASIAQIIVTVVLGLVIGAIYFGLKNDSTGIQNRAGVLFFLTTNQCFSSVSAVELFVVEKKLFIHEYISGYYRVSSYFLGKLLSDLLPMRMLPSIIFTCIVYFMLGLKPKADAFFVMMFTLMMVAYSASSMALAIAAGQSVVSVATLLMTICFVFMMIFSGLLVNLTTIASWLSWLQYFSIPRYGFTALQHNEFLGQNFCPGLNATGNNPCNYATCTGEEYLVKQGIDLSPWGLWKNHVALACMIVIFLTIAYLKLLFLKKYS

Structure (SMILES)	ED50 [1] [mg/kg]	ED50 [2] [mg/kg]	BCRP substrate [3]
CC#CC(=NOCC1COCCN1)c1ccc2ncnc(Nc3ccc(OCc4cccc(F)c4)c(Cl)c3)c2c1 (stereo not drawn) [Epertinib]	24.1	26.5	
CS(=O)(=O)CCNCc1ccc(-c2ccc3ncnc(Nc4ccc(OCc5cccc(F)c5)c(Cl)c4)c3c2)o1 [Lapatinib, N-{3-chloro-4-[(3-fluorobenzyl)oxy]phenyl}-6-[5-({[2-(methylsulfonyl)ethyl]amino}methyl)-2-furyl]-4-quinazolinamine, reference compound]			substrates
